From ChEMBL document CHEMBL3792384, “Design, synthesis and bioactivity of novel phthalimide derivatives as acetylcholinesterase inhibitors” (Bioorg Med Chem Lett, 2016) come the findings set out here.

The term IC50 denotes the concentration needed to halve the response being measured. Low readings indicate greater potency in that assay, high ones weaker potency in that assay.

For one assay, the target named is Acetylcholinesterase (Electrophorus electricus, UniProt O42275). In words: Inhibition of electric eel AChE preincubated for 15 mins followed by addition of acetylthiocholine iodide substrate by Ellman's method-based spectrophotometric analysis. A general note: DTNB colorimetry detects thiols as they appear.
In assay [1] the target is Cholinesterase (Equus caballus) (UniProt P81908). In words: (§1) Inhibition of equine serum BChE using butyrylthiocholine iodide as substrate by Ellman's method-based spectrophotometric analysis.
The next assay has as its target Cholinesterase (Equus caballus, UniProt P81908). Described as §1.

Activity calls are given as the source filed them. The calls are words filed in the database; no cut-off is given here.

Acetylcholinesterase, sequence (O42275 whole entry): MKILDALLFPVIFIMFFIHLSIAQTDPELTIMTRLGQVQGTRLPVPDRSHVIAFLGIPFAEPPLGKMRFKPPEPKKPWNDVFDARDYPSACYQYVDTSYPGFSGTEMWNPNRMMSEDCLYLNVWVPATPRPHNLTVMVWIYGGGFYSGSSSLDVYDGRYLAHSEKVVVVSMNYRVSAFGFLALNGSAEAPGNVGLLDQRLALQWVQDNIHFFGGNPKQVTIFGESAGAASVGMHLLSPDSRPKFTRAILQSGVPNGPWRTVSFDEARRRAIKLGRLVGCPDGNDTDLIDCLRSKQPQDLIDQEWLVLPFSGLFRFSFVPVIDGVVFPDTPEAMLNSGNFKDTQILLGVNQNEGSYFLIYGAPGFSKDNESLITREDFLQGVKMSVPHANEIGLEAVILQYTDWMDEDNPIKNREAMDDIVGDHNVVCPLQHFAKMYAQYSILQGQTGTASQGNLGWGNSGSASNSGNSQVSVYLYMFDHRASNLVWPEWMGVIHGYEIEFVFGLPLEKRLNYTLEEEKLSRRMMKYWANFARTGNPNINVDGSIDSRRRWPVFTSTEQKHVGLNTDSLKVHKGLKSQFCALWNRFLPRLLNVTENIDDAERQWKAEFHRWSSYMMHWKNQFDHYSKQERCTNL
Cholinesterase (Equus caballus), sequence (P81908 whole entry): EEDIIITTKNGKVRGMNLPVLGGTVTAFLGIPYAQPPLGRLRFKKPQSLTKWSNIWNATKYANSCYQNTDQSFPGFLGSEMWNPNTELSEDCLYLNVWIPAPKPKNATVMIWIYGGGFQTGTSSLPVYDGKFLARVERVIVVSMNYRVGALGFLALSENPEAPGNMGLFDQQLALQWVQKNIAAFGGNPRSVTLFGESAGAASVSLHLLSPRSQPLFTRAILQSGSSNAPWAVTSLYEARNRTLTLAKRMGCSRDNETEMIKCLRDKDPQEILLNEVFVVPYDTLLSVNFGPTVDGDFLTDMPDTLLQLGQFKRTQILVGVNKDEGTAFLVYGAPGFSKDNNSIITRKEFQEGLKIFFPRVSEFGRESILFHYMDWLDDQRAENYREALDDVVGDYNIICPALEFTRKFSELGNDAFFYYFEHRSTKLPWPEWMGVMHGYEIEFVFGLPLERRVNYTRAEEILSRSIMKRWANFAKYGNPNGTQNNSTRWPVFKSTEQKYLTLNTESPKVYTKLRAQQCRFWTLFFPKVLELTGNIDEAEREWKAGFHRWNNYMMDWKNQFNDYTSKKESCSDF
Cholinesterase, sequence (P81908 whole entry): as above

In turn, `COc1ccc(CN2CCN(CCCCCN3C(=O)c4ccccc4C3=O)CC2)cc1` gave an IC50 against Acetylcholinesterase of 548 nM.

On to `COc1ccc(CN2CCN(CCN3C(=O)c4ccccc4C3=O)CC2)cc1`, for which the IC50 at Acetylcholinesterase was found to be 466 nM.

Regarding `COc1ccc(CN2CCN(CCCN3C(=O)c4ccccc4C3=O)CC2)cc1`, the midpoint of inhibition at Acetylcholinesterase, the IC50, lay at 508 nM.

Molecule `COc1cc2c(cc1OCCCN1CCN(c3ccccc3OC)CC1)C(C)C(C)C(=O)O2` (stereo not drawn) returned a half-inhibitory concentration (IC50) on Acetylcholinesterase of 36 nM.

For `O=C1c2ccccc2C(=O)N1CCCCCCCCCCN1CCN(Cc2ccccc2)CC1`, the midpoint of inhibition on Acetylcholinesterase, the IC50, lay at 350 nM.

Regarding `O=C1c2ccccc2C(=O)N1CCCCCN1CCN(Cc2ccc(Cl)cc2)CC1`, the IC50 against Acetylcholinesterase was 720 nM.

`O=C1c2ccccc2C(=O)N1CCCN1CCN(Cc2ccc(Cl)cc2)CC1`: the IC50 against Acetylcholinesterase is 1430 nM.

The molecule `O=C1c2ccccc2C(=O)N1CCCCCN1CCN(Cc2ccccc2)CC1` displayed an IC50 against Acetylcholinesterase of 35.4 nM.

As for `COc1ccc(CN2CCN(CCCCN3C(=O)c4ccccc4C3=O)CC2)cc1`, on Acetylcholinesterase, the 50% inhibitory concentration (IC50) was 403 nM.

In turn, `COc1ccc(CN2CCN(C/C=C/CN3C(=O)c4ccccc4C3=O)CC2)cc1` gave an IC50 against Acetylcholinesterase of 489 nM.

Consider `O=C1c2ccccc2C(=O)N1CCN1CCN(Cc2ccccc2)CC1`, for which, on Acetylcholinesterase, half-maximal inhibition (IC50) required 91.1 nM.

For the molecule `O=C1c2ccccc2C(=O)N1CCCCCCCCN1CCN(Cc2ccccc2)CC1`, the inhibition result in assay [1] is “Active”. The IC50 on Acetylcholinesterase is 204 nM.

Turning to `O=C1c2ccccc2C(=O)N1C/C=C/CN1CCN(Cc2ccc(Cl)cc2)CC1`, 384 nM corresponded to half-maximal inhibition against Acetylcholinesterase (IC50).

`COc1ccc(CN2CCN(CCCCCCCN3C(=O)c4ccccc4C3=O)CC2)cc1` had an IC50 against Acetylcholinesterase of 448 nM.

With `O=C1c2ccccc2C(=O)N1C/C=C/CN1CCN(Cc2ccccc2)CC1`, the IC50 at Acetylcholinesterase came out at 13.6 nM.

Molecule `O=C1c2ccccc2C(=O)N1CCCCCCCN1CCN(Cc2ccccc2)CC1` registered an IC50 against Acetylcholinesterase of 53.8 nM.

As to `COc1ccc(CN2CCN(CCCCCCN3C(=O)c4ccccc4C3=O)CC2)cc1`, the IC50 against Acetylcholinesterase was found to be 687 nM.

In turn, `O=C1c2ccccc2C(=O)N1CCCCCCN1CCN(Cc2ccccc2)CC1` returned an IC50 against Acetylcholinesterase of 100 nM.

Take `O=C1c2ccccc2C(=O)N1CCCCCCN1CCN(Cc2ccc(Cl)cc2)CC1`: at Acetylcholinesterase, the IC50 turned out to be 389 nM.

`O=C1c2ccccc2C(=O)N1CCCCCCCN1CCN(Cc2ccc(Cl)cc2)CC1` returned an IC50 against Acetylcholinesterase of 655 nM.

Consider `O=C1c2ccccc2C(=O)N1CCCCN1CCN(Cc2ccc(Cl)cc2)CC1`, for which the IC50 against Acetylcholinesterase is 1420 nM.

On Acetylcholinesterase, `O=C1c2ccccc2C(=O)N1CCCN1CCN(Cc2ccccc2)CC1` registered an IC50 of 123 nM.

Take `O=C1c2ccccc2C(=O)N1CCCCN1CCN(Cc2ccccc2)CC1`: the IC50 against Acetylcholinesterase was found to be 18.4 nM.

`O=C1c2ccccc2C(=O)N1CCCCCCCCCCN1CCN(Cc2ccc(Cl)cc2)CC1` displayed a concentration for half-maximal inhibition (IC50) against Acetylcholinesterase of 1260 nM.

On to `O=C1c2ccccc2C(=O)N1CCCCCCCCCN1CCN(Cc2ccc(Cl)cc2)CC1`, for which inhibition against Acetylcholinesterase was half-maximal at 644 nM (IC50).

At Acetylcholinesterase, `COc1ccc(CN2CCN(CCCCCCCCCN3C(=O)c4ccccc4C3=O)CC2)cc1` displayed an IC50 of 657 nM.

The molecule `O=C1c2ccccc2C(=O)N1CCCCCCCCN1CCN(Cc2ccc(Cl)cc2)CC1` came in with an IC50 against Acetylcholinesterase of 440 nM.

Turning to `O=C1c2ccccc2C(=O)N1CCCCCCCCCN1CCN(Cc2ccccc2)CC1`, the values for the IC50 on Cholinesterase and on Acetylcholinesterase were 33.1 nM and 40.7 nM, respectively.

`O=C1c2ccccc2C(=O)N1CCN1CCN(Cc2ccc(Cl)cc2)CC1`: on Acetylcholinesterase, the IC50 was found to be 1100 nM.

At Acetylcholinesterase, `COc1ccc(CN2CCN(CCCCCCCCN3C(=O)c4ccccc4C3=O)CC2)cc1` showed an IC50 of 699 nM.

`COc1ccc(CN2CCN(CCCCCCCCCCN3C(=O)c4ccccc4C3=O)CC2)cc1` showed a 50% inhibitory concentration (IC50) against Acetylcholinesterase of 712 nM.
